Results as given in ChEMBL document CHEMBL4038272, “Synthesis and biological evaluation of novel podophyllotoxin-NSAIDs conjugates as multifunctional anti-MDR agents against resistant human hepatocellular carcinoma Bel-7402/5-FU cells” (Eur J Med Chem, 2017).
pIC50: −log10 of the molar value. Active and inactive are the calls of the source. No cut-off for these calls is given here.

Legend:
Bel7402/5-FU [1] = assay: Effect on COX1 expression in human Bel7402/5-FU cells assessed as ratio of COX1 to beta-actin level at 10 uM after 48 hrs by Western blot analysis (reference value: 0.48); type: functional
Bel7402/5-FU [2] = assay: Effect on iNOS expression in human Bel7402/5-FU cells assessed as ratio of iNOS to beta-actin level at 10 uM after 48 hrs by Western blot analysis (reference value: 0.13); type: functional
Bel7402/5-FU [3] = assay: Induction of apoptosis in human Bel7402/5-FU cells assessed as condensed nuclei at 10 uM after 24 hrs by Hoechst 33342 staining based fluorescent microscopic method; type: functional, cell-based
Bel7402/5-FU [4] = assay: Induction of apoptosis in human Bel7402/5-FU cells at 10 uM after 24 hrs by Hoechst 33342 staining based fluorescent microscopic method; type: functional, cell-based
Bel7402/5-FU [5] = assay: Induction of apoptosis in human Bel7402/5-FU cells assessed as ratio of cleaved PARP to beta-actin level at 10 uM after 48 hrs by Western blot analysis (reference value: 0.2); type: functional
Bel7402/5-FU [6] = assay: Effect on MRP1 expression in human Bel7402/5-FU cells assessed as ratio of MRP1 to beta-actin level at 10 uM after 48 hrs by Western blot analysis (reference value: 0.58); type: functional
Bel7402/5-FU [7] = assay: Cell cycle arrest in human Bel7402/5-FU cells assessed as accumulation at G2 phase at 10 uM after 48 hrs by propidium iodide staining based flow cytometry (reference value: 35.16%); type: functional
Bel7402/5-FU [8] = assay: Induction of apoptosis in human Bel7402/5-FU cells assessed as necrotic cells at 10 uM after 48 hrs by Annexin V-APC/7-AAD staining based flow cytometry (reference value: 0.58%); type: functional
[9] = Resistant factor, ratio of IC50 for human Bel7402/5-FU cells to IC50 for human Bel7402 cells; type: functional
Bel7402/5-FU [10] = assay: Induction of apoptosis in human Bel7402/5-FU cells assessed as morphological changes at 10 uM after 24 hrs by Hoechst 33342 staining based fluorescent microscopic method; type: functional, cell-based
Bel7402/5-FU [11] = assay: Effect on CDK2 expression in human Bel7402/5-FU cells assessed as ratio of CDK2 to beta-actin level at 10 uM after 48 hrs by Western blot analysis (reference value: 0.43); type: functional
L02 = assay: Antiproliferative activity against human LO2 cells after 72 hrs by CCK-8 assay; type: cell-based; conditions: L02, 72 h
Bel7402/5-FU [12] = assay: Antiproliferative activity against human Bel7402/5-FU cells after 72 hrs by CCK-8 assay; type: functional, cell-based
Bel7402/5-FU [13] = assay: Induction of apoptosis in human Bel7402/5-FU cells assessed as ratio of cleaved caspase-3 to beta-actin level at 10 uM after 48 hrs by Western blot analysis (reference value: 0.19); type: functional
Bel-7402 = assay: Antiproliferative activity against human Bel7402 cells after 72 hrs by CCK-8 assay; type: functional, cell-based; conditions: Bel-7402, 72 h
Bel7402/5-FU [14] = assay: Induction of apoptosis in human Bel7402/5-FU cells assessed as early apoptotic cells at 10 uM after 48 hrs by Annexin V-APC/7-AAD staining based flow cytometry (reference value: 5.24%); type: functional
Bel7402/5-FU [15] = assay: Induction of apoptosis in human Bel7402/5-FU cells assessed as late apoptotic cells at 10 uM after 48 hrs by Annexin V-APC/7-AAD staining based flow cytometry (reference value: 3%); type: functional
Bel7402/5-FU [16] = assay: Reduction in microtubule density in human Bel7402/5-FU cells at 10 uM after 24 to 48 hrs by DAPI staining based immunofluorescence microscopic method; type: functional, cell-based
Bel7402/5-FU [17] = assay: Induction of apoptosis in human Bel7402/5-FU cells assessed as ratio of cleaved caspase-8 to beta-actin level at 10 uM after 48 hrs by Western blot analysis (reference value: 0.17); type: functional
Bel7402/5-FU [18] = assay: Induction of microtubule disruption in human Bel7402/5-FU cells at 10 uM after 24 to 48 hrs by DAPI staining based immunofluorescence microscopic method; type: functional, cell-based
Bel7402/5-FU [19] = assay: Antimigratory activity in human Bel7402/5-FU cells at 10 uM after 24 hrs by wound healing assay; type: functional, cell-based
Bel7402/5-FU [20] = assay: Induction of apoptosis in human Bel7402/5-FU cells assessed as live cells at 10 uM after 48 hrs by Annexin V-APC/7-AAD staining based flow cytometry (reference value: 91.08%); type: functional
[21] = molecular target: Mitogen-activated protein kinase; ERK1/ERK2 (Homo sapiens) (UniProt P27361+P28482); assay: Effect on ERK1/2 phosphorylation in human Bel7402/5-FU cells assessed as ratio of phosphorylated ERK1/2 to beta-actin level at 10 uM after 48 hrs by Western blot analysis (reference value: 0.59); type: cell-based
Chain of Mitogen-activated protein kinase; ERK1/ERK2 (Homo sapiens) (P27361 whole entry, looked up): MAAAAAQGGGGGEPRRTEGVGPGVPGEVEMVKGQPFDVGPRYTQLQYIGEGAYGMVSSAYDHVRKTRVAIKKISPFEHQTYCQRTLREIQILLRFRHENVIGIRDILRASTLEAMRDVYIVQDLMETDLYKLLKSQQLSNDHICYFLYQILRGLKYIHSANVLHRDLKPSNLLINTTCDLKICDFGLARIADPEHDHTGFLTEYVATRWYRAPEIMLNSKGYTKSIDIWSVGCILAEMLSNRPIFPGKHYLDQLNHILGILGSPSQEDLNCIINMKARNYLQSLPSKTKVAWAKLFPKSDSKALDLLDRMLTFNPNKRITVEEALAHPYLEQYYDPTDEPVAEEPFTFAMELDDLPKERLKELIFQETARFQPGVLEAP
Chain of Mitogen-activated protein kinase; ERK1/ERK2 (Homo sapiens) (P28482 whole entry, looked up): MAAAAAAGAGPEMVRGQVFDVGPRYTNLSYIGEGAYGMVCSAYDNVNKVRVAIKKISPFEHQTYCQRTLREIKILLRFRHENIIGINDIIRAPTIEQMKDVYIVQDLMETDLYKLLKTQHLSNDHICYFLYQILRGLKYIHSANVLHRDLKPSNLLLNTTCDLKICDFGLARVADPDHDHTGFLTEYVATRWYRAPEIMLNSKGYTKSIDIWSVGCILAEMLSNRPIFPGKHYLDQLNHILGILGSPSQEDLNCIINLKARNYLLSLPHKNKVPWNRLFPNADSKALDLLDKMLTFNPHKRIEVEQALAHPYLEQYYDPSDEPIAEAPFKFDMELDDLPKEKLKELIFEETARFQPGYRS

Bel7402/5-FU [22] = assay: Cell cycle arrest in human Bel7402/5-FU cells assessed as accumulation at S phase at 10 uM after 48 hrs by propidium iodide staining based flow cytometry (reference value: 12.62%); type: functional
Bel7402/5-FU [23] = assay: Effect on cyclinA expression in human Bel7402/5-FU cells assessed as ratio of cyclinA to beta-actin level at 10 uM after 48 hrs by Western blot analysis (reference value: 0.39); type: functional
[24] = molecular target: Signal transducer and activator of transcription 3 (Homo sapiens) (UniProt P40763); assay: Effect on STAT3 phosphorylation in human Bel7402/5-FU cells assessed as ratio of phosphorylated STAT3 to beta-actin level at 10 uM after 48 hrs by Western blot analysis (reference value: 0.3); type: cell-based
Chain of Signal transducer and activator of transcription 3 (Homo sapiens) (P40763 whole entry): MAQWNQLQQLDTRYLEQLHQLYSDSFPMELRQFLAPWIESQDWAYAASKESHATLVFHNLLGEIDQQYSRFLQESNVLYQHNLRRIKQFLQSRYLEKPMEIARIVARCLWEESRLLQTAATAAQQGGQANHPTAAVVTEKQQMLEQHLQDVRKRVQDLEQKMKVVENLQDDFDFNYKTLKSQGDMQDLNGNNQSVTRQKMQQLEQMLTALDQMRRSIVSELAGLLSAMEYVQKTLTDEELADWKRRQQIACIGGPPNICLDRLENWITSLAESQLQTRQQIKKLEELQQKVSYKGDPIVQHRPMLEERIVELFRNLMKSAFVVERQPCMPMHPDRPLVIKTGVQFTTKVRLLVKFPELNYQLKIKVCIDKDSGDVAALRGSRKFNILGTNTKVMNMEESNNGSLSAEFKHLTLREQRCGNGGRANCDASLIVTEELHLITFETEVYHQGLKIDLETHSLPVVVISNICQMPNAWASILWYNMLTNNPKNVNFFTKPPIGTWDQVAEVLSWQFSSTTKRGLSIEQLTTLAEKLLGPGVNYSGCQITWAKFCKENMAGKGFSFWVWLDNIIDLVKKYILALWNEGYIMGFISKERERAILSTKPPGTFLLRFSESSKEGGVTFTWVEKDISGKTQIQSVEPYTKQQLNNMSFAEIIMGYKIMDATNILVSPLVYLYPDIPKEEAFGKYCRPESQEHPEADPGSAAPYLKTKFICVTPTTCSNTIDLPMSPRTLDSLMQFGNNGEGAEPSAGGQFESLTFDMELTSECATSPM

Bel7402/5-FU [25] = assay: Cell cycle arrest in human Bel7402/5-FU cells assessed as accumulation at G1 phase at 10 uM after 48 hrs by propidium iodide staining based flow cytometry (reference value: 52.21%); type: functional
Bel7402/5-FU [26] = assay: Effect on CDK1 expression in human Bel7402/5-FU cells assessed as ratio of CDK1 to beta-actin level at 10 uM after 48 hrs by Western blot analysis (reference value: 0.33); type: functional
Bel7402/5-FU [27] = assay: Effect on COX2 expression in human Bel7402/5-FU cells assessed as ratio of COX2 to beta-actin level at 10 uM after 48 hrs by Western blot analysis (reference value: 0.36); type: functional
Bel7402/5-FU [28] = assay: Effect on VEGFR2 expression in human Bel7402/5-FU cells assessed as ratio of VEGFR2 to beta-actin level at 10 uM after 48 hrs by Western blot analysis (reference value: 0.25); type: functional
Bel7402/5-FU [29] = assay: Effect on P-gp expression in human Bel7402/5-FU cells assessed as ratio of P-gp to beta-actin level at 10 uM after 48 hrs by Western blot analysis (reference value: 0.59); type: functional
Bel7402/5-FU [30] = assay: Induction of apoptosis in human Bel7402/5-FU cells assessed as reduction in cell number at 10 uM after 24 hrs by Hoechst 33342 staining based fluorescent microscopic method; type: functional
Bel7402/5-FU [31] = assay: Effect on E-cadherin expression in human Bel7402/5-FU cells assessed as ratio of E-cadherin to beta-actin level at 10 uM after 48 hrs by Western blot analysis (reference value: 0.2); type: functional
Bel7402/5-FU [32] = assay: Induction of apoptosis in human Bel7402/5-FU cells assessed as ratio of cleaved caspase-9 to beta-actin level at 10 uM after 48 hrs by Western blot analysis (reference value: 0.17); type: functional
Bel7402/5-FU [33] = assay: Effect on MMP2 expression in human Bel7402/5-FU cells assessed as ratio of MMP2 to beta-actin level at 10 uM after 48 hrs by Western blot analysis (reference value: 0.3); type: functional
Bel7402/5-FU [34] = assay: Effect on cyclinB1 expression in human Bel7402/5-FU cells assessed as ratio of cyclinB1 to beta-actin level at 10 uM after 48 hrs by Western blot analysis (reference value: 0.53); type: functional
[35] = molecular target: RAC-alpha serine/threonine-protein kinase (Homo sapiens) (UniProt P31749); assay: Effect on AKT phosphorylation in human Bel7402/5-FU cells assessed as ratio of phosphorylated AKT to beta-actin level at 10 uM after 48 hrs by Western blot analysis (reference value: 0.39); type: cell-based
Chain of RAC-alpha serine/threonine-protein kinase (Homo sapiens) (P31749 whole entry): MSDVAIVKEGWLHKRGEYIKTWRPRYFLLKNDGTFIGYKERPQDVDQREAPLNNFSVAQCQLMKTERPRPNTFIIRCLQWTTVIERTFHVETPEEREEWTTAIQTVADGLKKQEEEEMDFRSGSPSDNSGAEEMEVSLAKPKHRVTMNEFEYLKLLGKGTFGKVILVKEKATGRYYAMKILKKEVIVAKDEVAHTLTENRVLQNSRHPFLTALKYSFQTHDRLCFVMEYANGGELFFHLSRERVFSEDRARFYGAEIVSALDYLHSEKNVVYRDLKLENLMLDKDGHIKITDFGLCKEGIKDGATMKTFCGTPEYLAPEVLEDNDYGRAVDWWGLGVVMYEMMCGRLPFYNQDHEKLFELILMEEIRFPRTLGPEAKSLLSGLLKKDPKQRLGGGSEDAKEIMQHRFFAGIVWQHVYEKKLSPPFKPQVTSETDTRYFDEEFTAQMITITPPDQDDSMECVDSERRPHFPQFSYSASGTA

With COc1cc([C@@H]2c3cc4c(cc3[C@H](OC(=O)C(C)c3ccc(CC(C)C)cc3)[C@H]3COC(=O)[C@H]23)OCO4)cc(OC)c1OC (some centres not stated) the Ratio (Bel7402/5-FU [1]) was 0.46, the Ratio (Bel7402/5-FU [2]) was 0.23 and the Activity (Bel7402/5-FU [3]) was “Active”. For the same compound, the Activity (Bel7402/5-FU [4]) was “Active”, the Ratio (Bel7402/5-FU [5]) was 0.35 and the Ratio (Bel7402/5-FU [6]) was 0.7. For the same compound, the Activity (Bel7402/5-FU [7]) was 63.78%, the Activity (Bel7402/5-FU [8]) was 9.59% and the “Ratio IC50” value [9] was 0.54. The Activity (Bel7402/5-FU [10]) was “Active”, the Ratio (Bel7402/5-FU [11]) was 0.38 and the pIC50 (L02) was 5.13. For the same compound, the pIC50 (Bel7402/5-FU [12]) was 4.99, the Ratio (Bel7402/5-FU [13]) was 0.33 and the pIC50 (Bel-7402) was 4.72. For the same compound, the Activity (Bel7402/5-FU [14]) was 7.12%, the Activity (Bel7402/5-FU [15]) was 21.24% and the Activity (Bel7402/5-FU [16]) was “Active”. For the same compound, the Ratio (Bel7402/5-FU [17]) was 0.25, the Activity (Bel7402/5-FU [18]) was “Active” and the Activity (Bel7402/5-FU [19]) was “Active”. It also gave an Activity (Bel7402/5-FU [20]) of 62.05%, a Ratio [21] of 0.55 and an Activity (Bel7402/5-FU [22]) of 27.34%. The Ratio (Bel7402/5-FU [23]) was 0.36, the Ratio [24] was 0.4 and the Activity (Bel7402/5-FU [25]) was 8.88%. For the same compound, the Ratio (Bel7402/5-FU [26]) was 0.29, the Ratio (Bel7402/5-FU [27]) was 0.43 and the Ratio (Bel7402/5-FU [28]) was 0.18. The Ratio (Bel7402/5-FU [29]) was 0.61, the Activity (Bel7402/5-FU [30]) was “Active” and the Ratio (Bel7402/5-FU [31]) was 0.29. It also gave a Ratio (Bel7402/5-FU [32]) of 0.25, a Ratio (Bel7402/5-FU [33]) of 0.21 and a Ratio (Bel7402/5-FU [34]) of 0.52. For the same compound, the Ratio [35] was 0.42.
